For 24 molecules, IC50 results are on record in patent publication US5650428A, “Arylsulfonamide derivative and pharmaceutical compositions and use thereof” (NKK Corporation, priority 1993, dated 1997).

Test [1] addresses T1, thromboxane A2 (TxA2) receptor (Cavia porcellus, UniProt A0A286Y4I8).
T1 construct: to obtain washed platelets; from tissue; host or cells: washed platelets of male Hartley guinea pigs
T1 sequence (A0A286Y4I8 1-347): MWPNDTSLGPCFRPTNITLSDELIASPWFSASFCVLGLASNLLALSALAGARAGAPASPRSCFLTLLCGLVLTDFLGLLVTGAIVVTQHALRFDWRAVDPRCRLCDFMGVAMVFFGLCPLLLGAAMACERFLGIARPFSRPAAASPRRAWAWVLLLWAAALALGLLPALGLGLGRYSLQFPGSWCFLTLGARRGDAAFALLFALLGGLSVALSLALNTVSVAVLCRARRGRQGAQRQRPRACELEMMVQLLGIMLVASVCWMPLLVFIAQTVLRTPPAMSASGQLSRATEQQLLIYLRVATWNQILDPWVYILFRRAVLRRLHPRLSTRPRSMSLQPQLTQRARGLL
The test can be described thus: TxA2 antagonist action by binding assay. Particulars: washed guinea pig platelets, 1 nM [3H]-SQ29,548, 45 minutes at 25° C. On the procedure:
(1) TxA2 antagonist action by binding assay Guinea pigs (Hartley; male; body weight=approximately 500 g) were anesthetized with ether, and the blood was collected into sodium citrate (final concentration=0.38%). The preparation of platelets was carried out at room temperature. The platelet rich plasma was obtained by centrifugation at 980 rpm for 10 minutes. One tenth (1/10) amount of 77 mM-EDTA-Na (pH 7.4) was added to the platelet rich plasma, and the mixture was centrifuged for 10 minutes at 3000 rpm. The suspension was again centrifuged at 3000 rpm for 10 minutes. The precipitate was further resuspended in a suspension buffer (2) shown in Table 2 to obtain washed platelets. The number of platelets was counted by an automatic blood cell counter (Sysmex Microcellcounter F-800) and the sample was diluted with the suspension buffer to 4×10^8 cells/ml. The platelets, sample solution and labeled compounds were placed into plastic tubes in amounts (volumes) shown in the following Table 3, incubated for 45 minutes at 25° C., and then the mixture was filtered using a cell harvester (Brandel cell harvester M-24R) by a glass fiber filter (Whatman GF/B). After the filter was sufficiently dried, the scintillation was counted by a scintillation counter (Beckman LS5000TD). IC50 was calculated from (binding)/(control binding) ratio in the presence of an antagonist. [table 3: the next 10 blocks are its lines as printed, fixed-width]

For another test, the system named is rat platelet. The test can be described thus: Inhibitory activity of aggregation in rat platelet. Type of test: cell-based. Particulars: rat platelet rich plasma, arachidonic acid (final concentration 0.5 mM) as inducer; read-out: C: Inhibitory activity of aggregation in rat platelet (IC50; μM). On the procedure: (3) Inhibitory Activity of Aggregation in Rat Platelet The abdomen of etherized rat was open, and blood was taken from the abdominal arteries, using a sodium citrate solution (final concentration was 0.38%). The blood was centrifuged at 1100 rpm for 10 minutes, and the supernatent was separated as the platelet rich plasma. The plasma was further centrifuged at 2000 rpm for 15 minutes to obtain the supernatent as a platelet poor plasma. The platelet rich plasma (280 μl) was placed in a measuring cuvette and preincubated for 1 minute at 37° C. Then, a sample solution (10 μl) was added. After 2 minutes, an arachidonic acid solution (final concentration=0.5 mM) (10 μl) was added as an inducer. The change in light transmission was recorded for 5 minutes.

The structures appear in SMILES notation. Where a name gives a salt, the structure may show the parent alone.

Turning to `O=C(O)Cc1ccc(NC(=O)C(COc2ccc(Cl)cc2)NS(=O)(=O)c2ccc(Cl)cc2)cc1` (racemic) [Example 130, (RS)-N-(4-(carboxymethyl)phenyl)-2-(4-chlorobenzenesulfonylamino)-3-(4-chlorophenoxy)propanamide], the IC50 in test [1] turned out to be 0.16 µM; with rat platelet, 1.7 µM.

As to `O=C(O)Cc1ccc(NC(=O)C(COc2ccccc2)NS(=O)(=O)c2ccc(F)cc2)cc1` (racemic) [Example 136, (RS)-N-(4-(carboxymethyl)phenyl)-2-(4-fluorobenzenesulfonylamino)-3-phenoxypropanamide], the IC50 in test [1] turned out to be 0.15 µM; in the test on rat platelet, 0.55 µM.

As to `COc1ccc(S(=O)(=O)NC(COC2CCCCO2)C(=O)Nc2ccc(CC(=O)O)cc2)cc1` (racemic) [Example 57, (RS)-N-(4-(carboxymethyl)phenyl)-2-(4-methoxybenzenesulfonylamino)-3-(tetrahydropyran-2-yloxy)propanamide], the IC50 in test [1] was 0.15 µM; with rat platelet, 0.53 µM.

In the case of `O=C(O)Cc1ccc(NC(=O)C(COc2cccc(Cl)c2)NS(=O)(=O)c2ccc(Cl)cc2)cc1` (racemic) [Example 131, (RS)-N-(4-(carboxymethyl)phenyl)-2-(4-chlorobenzenesulfonylamino)-3-(3-chlorophenoxy)propanamide], the half-inhibitory concentration (IC50) was determined as 0.047 µM in test [1] and 1.7 µM in the test with rat platelet.

Turning to `O=C(O)Cc1ccc(NC(=O)C(COc2cccc(Cl)c2)NS(=O)(=O)c2ccc(Br)cc2)cc1` (racemic) [Example 144, (RS)-2-(4-bromobenzenesulfonylamino)-N-(4-(carboxymethyl)phenyl)-3-(3-chlorophenoxy) propanamide], the values for the IC50 (in test [1]; with rat platelet) were 0.051 µM and 0.53 µM, respectively.

In the case of `O=C(O)Cc1ccc(NC(=O)C(COc2ccc(Cl)cc2)NS(=O)(=O)c2ccc(F)cc2)cc1` (racemic) [Example 137, (RS)-N-(4-(carboxymethyl)phenyl)-3-(4-chlorophenoxy)-2-(4-fluorobenzenesulfonylamino)propanamide], the IC50 came out at 0.1 µM in test [1] and 1.7 µM in the test with rat platelet.

Take `O=C(O)Cc1ccc(NC(=O)C(COC2CCCCO2)NS(=O)(=O)c2ccc(Cl)c([N+](=O)[O-])c2)cc1` (racemic) [Example 58, (RS)-N-(4-(carboxymethyl)phenyl)-2-(4-chloro-3-nitrobenzenesulfonylamino)-3-(tetrahydropyran-2-yloxy)propanamide]: the 50% inhibitory concentration (IC50) in test [1] is 1.4 µM; in the test on rat platelet it was 5.3 µM.

With `O=C(O)Cc1ccc(NC(=O)[C@H](Cc2ccccc2)NS(=O)(=O)c2ccc(Cl)cc2)cc1` [Example 248, (S)-N-(4-(carboxymethyl)phenyl)-2-(4-chlorobenzenesulfonylamino)-3-phenylpropanamide], the figures for the 50% inhibitory concentration (IC50) (in test [1]; in the test on rat platelet) were 0.012 µM and 0.053 µM, respectively.

Turning to `CSCCC(NS(=O)(=O)c1ccc(Cl)cc1)C(=O)Nc1ccc(CC(=O)O)cc1` (racemic) [Example 233, (RS)-N-(4-(carboxymethyl)phenyl)-2-(4-chlorobenzenesulfonylamino)-4-methylthiobutanamide], the IC50 (in test [1]; in the test on rat platelet) was 0.17 µM each time.

As to `O=C(O)Cc1ccc(NC(=O)C(CCc2ccccc2)NS(=O)(=O)c2ccc(Cl)cc2)cc1` (racemic) [Example 172, (RS)-N-(4-(carboxymethyl)phenyl)-2-(4-chlorobenzenesulfonylamino)-4-phenylbutanamide], the IC50 in test [1] turned out to be 0.072 µM; in the test with rat platelet it was 1.7 µM.

As to `CCCC[C@H](NS(=O)(=O)c1ccc(Cl)cc1)C(=O)Nc1ccc(CC(=O)O)cc1` [Example 223, (S)-N-(4-(carboxymethyl)phenyl)-2-(4-chlorobenzenesulfonylamino)hexanamide], the results for the IC50 (in test [1]; in the test with rat platelet) were 0.13 µM and 0.17 µM, respectively.

Consider `CSCC[C@H](NS(=O)(=O)c1ccc(Cl)cc1)C(=O)Nc1ccc(CC(=O)O)cc1` [Example 234, (S)-N-(4-(carboxymethyl)phenyl)-2-(4-chlorobenzenesulfonylamino)-4-methylthiobutanamide], for which the IC50 is 0.052 µM in test [1] and 0.17 µM in the test with rat platelet.

Regarding `CCSCCC(NS(=O)(=O)c1ccc(Cl)cc1)C(=O)Nc1ccc(CCC(=O)O)cc1` (racemic) [Example 244, (RS)-N-(4-(2-carboxyethyl)phenyl)-2-(4-chlorobenzenesulfonylamino)-4-ethylthiobutanamide], the values for the IC50 (in test [1]; in the test on rat platelet) were 0.29 µM and 1.6 µM, respectively.

For the molecule `O=C(O)CCCCCCNC(=O)C(Cn1ccnc1)NS(=O)(=O)c1ccc(Cl)cc1` (racemic) [Example 101, (RS)-N-(6-carboxyhexyl)-2-(4-chlorobenzenesulfonylamino)-3-(1H-imidazol-1-yl)propanamide hydrochloride], the IC50 in test [1] was found to be 0.41 µM; in the test with rat platelet it was 1.7 µM.

In the case of `O=C(O)Cc1ccc(NC(=O)C(Cn2ccnc2)NS(=O)(=O)c2ccc(Cl)cc2)cc1` (racemic) [Example 94, (RS)-N-(4-(carboxymethyl)phenyl)-2-(4-chlorobenzenesulfonylamino)-3-(1H-imidazol-1-yl)propanamide hydrochloride], the IC50 amounted to 0.86 µM in test [1] and 1.7 µM in the test with rat platelet.

As to `O=C(O)CCCCCNC(=O)C(COC1CCCCO1)NS(=O)(=O)c1ccc(Cl)cc1` (racemic) [Example 49, (RS)-N-(5-carboxypentyl)-2-(4-chlorobenzenesulfonylamino)-3-(tetrahydropyran-2-yloxy)propanamide], the IC50 in test [1] turned out to be 1.7 µM; in the test with rat platelet it was 0.4 µM.

On to `O=C(O)CCc1ccc(NC(=O)[C@H](Cc2ccccc2)NS(=O)(=O)c2ccc(Br)cc2)cc1` [Example 254, (S)-2-(4-bromobenzenesulfonylamino)-N-(4-(2-carboxyethyl)phenyl)-3-phenylpropanamide], for which the concentration for half-maximal inhibition (IC50) in test [1] was 0.005 µM; in the test with rat platelet it was 0.051 µM.

For `O=C(O)Cc1ccc(NC(=O)[C@H](Cc2ccccc2)NS(=O)(=O)c2ccc(Br)cc2)cc1` [Example 252, (S)-2-(4-bromobenzenesulfonylamino)-N-(4-(carboxymethyl)phenyl)-3-phenylpropanamide], the IC50 amounted to 0.0071 µM in test [1] and 0.055 µM in the test on rat platelet.

Turning to `O=C(O)Cc1ccc(NC(=O)C(Cn2ccnc2)NS(=O)(=O)c2ccc(F)cc2)cc1` (racemic) [Example 103, (RS)-N-(4-(carboxymethyl)phenyl)-2-(4-fluorobenzenesulfonylamino)-3-(1H-imidazol-1-yl)propanamide], the IC50 amounted to 1.9 µM in test [1] and 1.7 µM in the test with rat platelet.

With `O=C(O)Cc1ccc(NC(=O)C(COC2CCCCO2)NS(=O)(=O)c2ccccc2)cc1` (racemic) [Example 52, (RS)-2-(benzenesulfonylamino)-N-(4-(carboxymethyl)phenyl)-3-(tetrahydropyran-2-yloxy) propanamide], the 50% inhibitory concentration (IC50) in test [1] came to 2.2 µM; with rat platelet, 1.7 µM.

`O=C(O)Cc1ccc(NC(=O)C(COc2ccc(Cl)cc2)NS(=O)(=O)c2ccc(I)cc2)cc1` (racemic) [Example 150, (RS)-N-(4-(carboxymethyl)phenyl)-3-(4-chlorophenoxy)-2-(4-iodobenzenesulfonylamino)propanamide]: the figures for the IC50 (in test [1]; with rat platelet) were 0.019 µM and 5.4 µM, respectively.

On to `O=C(O)CCc1ccc(NC(=O)C(Cc2ccccc2)NS(=O)(=O)c2ccc(Cl)cc2)cc1` (racemic) [Example 249, (RS)-N-(4-(2-carboxyethyl)phenyl)-2-(4-chlorobenzenesulfonylamino)-3-phenylpropanamide], for which the figures for the 50% inhibitory concentration (IC50) (in test [1]; in the test with rat platelet) were 0.024 µM and 0.18 µM, respectively.

Regarding `O=C(O)CCc1cccc(NC(=O)C(COC2CCCCO2)NS(=O)(=O)c2ccc(Cl)cc2)c1` (racemic) [Example 46, (RS)-N-(3-(carboxyethyl)phenyl)-2-(4-chlorobenzenesulfonylamino)-3-(tetrahydropyran-2-yloxy)propanamide], the IC50 turned out to be 0.11 µM in test [1] and 1.7 µM in the test on rat platelet.

For `CSCC[C@H](NS(=O)(=O)c1ccc(Br)cc1)C(=O)Nc1cccc(C(=O)O)c1` [Example 241, (S)-2-(4-bromobenzenesulfonylamino)-N-(3-carboxyphenyl)-4-methylthiobutanamide], the IC50 in test [1] came to 0.014 µM; in the test on rat platelet, 0.053 µM.
